{
  "source": "PubChem BioAssay (NCI)",
  "assay_in_all_cases": "NCI-60 cell line screen, 48 h",
  "key": {"NCI-H522 lung": {"system": "NCI-H522 lung"}, "SNB-75 CNS": {"system": "SNB-75 CNS"}, "T-47D breast": {"system": "T-47D breast"}, "SW-620 colon": {"system": "SW-620 colon"}, "NCI-H226 lung": {"system": "NCI-H226 lung"}, "SR leukemia": {"system": "SR leukemia"}, "HCT-15 colon": {"system": "HCT-15 colon"}, "HS 578T breast": {"system": "HS 578T breast"}, "UO-31 renal": {"system": "UO-31 renal"}, "SK-OV-3 ovarian": {"system": "SK-OV-3 ovarian"}, "CCRF-CEM leukemia": {"system": "CCRF-CEM leukemia"}, "OVCAR-3 ovarian": {"system": "OVCAR-3 ovarian"}, "SNB-19 CNS": {"system": "SNB-19 CNS"}, "A498 renal": {"system": "A498 renal"}, "MALME-3M melanoma": {"system": "MALME-3M melanoma"}, "ACHN renal": {"system": "ACHN renal"}, "786-0 renal": {"system": "786-0 renal"}, "MDA-MB-231 breast": {"system": "MDA-MB-231 breast"}, "OVCAR-4 ovarian": {"system": "OVCAR-4 ovarian"}, "HT29 colon": {"system": "HT29 colon"}, "RPMI-8226 leukemia": {"system": "RPMI-8226 leukemia"}, "A549 NSCLC": {"system": "A549 NSCLC"}, "K-562 leukemia": {"system": "K-562 leukemia"}, "HOP-92 NSCLC": {"system": "HOP-92 NSCLC"}, "MOLT-4 leukemia": {"system": "MOLT-4 leukemia"}, "SK-MEL-5 melanoma": {"system": "SK-MEL-5 melanoma"}, "HOP-62 NSCLC": {"system": "HOP-62 NSCLC"}, "M14 melanoma": {"system": "M14 melanoma"}, "SF-268 CNS": {"system": "SF-268 CNS"}, "NCI/ADR-RES ovarian": {"system": "NCI/ADR-RES ovarian"}, "U251 CNS": {"system": "U251 CNS"}, "IGROV1 ovarian": {"system": "IGROV1 ovarian"}, "SF-295 CNS": {"system": "SF-295 CNS"}, "HCC-2998 colon": {"system": "HCC-2998 colon"}, "OVCAR-5 ovarian": {"system": "OVCAR-5 ovarian"}, "PC-3 prostate": {"system": "PC-3 prostate"}, "BT-549 breast": {"system": "BT-549 breast"}, "COLO 205 colon": {"system": "COLO 205 colon"}, "SN12C renal": {"system": "SN12C renal"}, "SK-MEL-28 melanoma": {"system": "SK-MEL-28 melanoma"}, "NCI-H23 lung": {"system": "NCI-H23 lung"}, "HCT-116 colon": {"system": "HCT-116 colon"}, "TK-10 renal": {"system": "TK-10 renal"}, "UACC-62 melanoma": {"system": "UACC-62 melanoma"}, "MCF7 breast": {"system": "MCF7 breast"}, "SK-MEL-2 melanoma": {"system": "SK-MEL-2 melanoma"}, "SF-539 CNS": {"system": "SF-539 CNS"}, "DU-145 prostate": {"system": "DU-145 prostate"}, "OVCAR-8 ovarian": {"system": "OVCAR-8 ovarian"}, "MDA-MB-435": {"system": "MDA-MB-435"}, "NCI-H460 lung": {"system": "NCI-H460 lung"}, "EKVX NSCLC": {"system": "EKVX NSCLC"}, "MDA-N": {"system": "MDA-N"}, "UACC-257 melanoma": {"system": "UACC-257 melanoma"}, "CAKI-1 renal": {"system": "CAKI-1 renal"}, "RXF 393 renal": {"system": "RXF 393 renal"}, "LOX IMVI melanoma": {"system": "LOX IMVI melanoma"}},
  "note": "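Exposure lasted 48 hours, with cells grown in 96-well plates and compounds tested at five concentrations. Definition used: TGI = concentration required for complete inhibition of growth.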 *1 amine or outer side, *2 acyl side, *3 side chain or, on linkers, in order; H or OH if unused. Where a SMILES comes first, the peptide text is derived from it. [ ]: non-standard residue; d: D form. X32 = C[C@H](N[*:1])C(=O)C(C)(C)C(=O)[*:2]; Hmpa(2S,3S) = CC[C@H](C)[C@H](O)C(=O)O; NMeY = CN[C@@H](Cc1ccc(O)cc1)C(=O)O; NMeL = CN[C@@H](CC(C)C)C(=O)O; NMeV = CN[C@H](C(=O)O)C(C)C; βAla = NCCC(=O)O",
  "data": [
    {"smiles": "CC[C@H](C)[C@@H]1OC(=O)CCNC(=O)[C@@H](C)NC(=O)C(C)(C)C(=O)[C@H](C)NC(=O)[C@H](Cc2ccc(OC)cc2)N(C)C(=O)[C@H](C(C)C)N(C)C(=O)CNC(=O)[C@H](CC(C)C)N(C)C(=O)CNC1=O", "note": "(cyclo(G[NMeL]G[NMeV][NMeY](Me)[X32][dA][βAla][Hmpa(2S,3S)]))", "values": [
      {"measurement": "TGI", "setting": "NCI-H522 lung", "value": "> 50", "unit": "µM"},
      {"measurement": "TGI", "setting": "SNB-75 CNS", "value": 3.52, "unit": "µM"},
      {"measurement": "TGI", "setting": "T-47D breast", "value": "> 50", "unit": "µM"},
      {"measurement": "TGI", "setting": "SW-620 colon", "value": "> 50", "unit": "µM"},
      {"measurement": "TGI", "setting": "NCI-H226 lung", "value": "> 38.2", "unit": "µM"},
      {"measurement": "TGI", "setting": "SR leukemia", "value": "> 25.9", "unit": "µM"},
      {"measurement": "TGI", "setting": "HCT-15 colon", "value": "> 50", "unit": "µM"},
      {"measurement": "TGI", "setting": "HS 578T breast", "value": 20.8, "unit": "µM"},
      {"measurement": "TGI", "setting": "UO-31 renal", "value": 16, "unit": "µM"},
      {"measurement": "TGI", "setting": "SK-OV-3 ovarian", "value": 4.11, "unit": "µM"},
      {"measurement": "TGI", "setting": "CCRF-CEM leukemia", "value": 2.2, "unit": "µM"},
      {"measurement": "TGI", "setting": "OVCAR-3 ovarian", "value": 14.3, "unit": "µM"},
      {"measurement": "TGI", "setting": "SNB-19 CNS", "value": 9.63, "unit": "µM"},
      {"measurement": "TGI", "setting": "A498 renal", "value": 5.91, "unit": "µM"},
      {"measurement": "TGI", "setting": "MALME-3M melanoma", "value": 10.3, "unit": "µM"},
      {"measurement": "TGI", "setting": "ACHN renal", "value": "> 38", "unit": "µM"},
      {"measurement": "TGI", "setting": "786-0 renal", "value": 12.7, "unit": "µM"},
      {"measurement": "TGI", "setting": "MDA-MB-231 breast", "value": 11.2, "unit": "µM"},
      {"measurement": "TGI", "setting": "OVCAR-4 ovarian", "value": 3.51, "unit": "µM"},
      {"measurement": "TGI", "setting": "HT29 colon", "value": 10.2, "unit": "µM"},
      {"measurement": "TGI", "setting": "RPMI-8226 leukemia", "value": 11.1, "unit": "µM"},
      {"measurement": "TGI", "setting": "A549 NSCLC", "value": "> 50", "unit": "µM"},
      {"measurement": "TGI", "setting": "K-562 leukemia", "value": "> 24.5", "unit": "µM"},
      {"measurement": "TGI", "setting": "HOP-92 NSCLC", "value": 4.61, "unit": "µM"},
      {"measurement": "TGI", "setting": "MOLT-4 leukemia", "value": "> 26.9", "unit": "µM"},
      {"measurement": "TGI", "setting": "SK-MEL-5 melanoma", "value": 0.228, "unit": "µM"},
      {"measurement": "TGI", "setting": "HOP-62 NSCLC", "value": 10.6, "unit": "µM"},
      {"measurement": "TGI", "setting": "M14 melanoma", "value": 10.2, "unit": "µM"},
      {"measurement": "TGI", "setting": "SF-268 CNS", "value": 6.54, "unit": "µM"},
      {"measurement": "TGI", "setting": "NCI/ADR-RES ovarian", "value": "> 50", "unit": "µM"},
      {"measurement": "TGI", "setting": "U251 CNS", "value": 2.62, "unit": "µM"},
      {"measurement": "TGI", "setting": "IGROV1 ovarian", "value": 4.16, "unit": "µM"},
      {"measurement": "TGI", "setting": "SF-295 CNS", "value": 24.3, "unit": "µM"},
      {"measurement": "TGI", "setting": "HCC-2998 colon", "value": "> 25.1", "unit": "µM"},
      {"measurement": "TGI", "setting": "OVCAR-5 ovarian", "value": "> 31.2", "unit": "µM"},
      {"measurement": "TGI", "setting": "PC-3 prostate", "value": "> 31.5", "unit": "µM"},
      {"measurement": "TGI", "setting": "BT-549 breast", "value": 13.6, "unit": "µM"},
      {"measurement": "TGI", "setting": "COLO 205 colon", "value": 0.0545, "unit": "µM"},
      {"measurement": "TGI", "setting": "SN12C renal", "value": "> 50", "unit": "µM"},
      {"measurement": "TGI", "setting": "SK-MEL-28 melanoma", "value": "> 36.3", "unit": "µM"},
      {"measurement": "TGI", "setting": "NCI-H23 lung", "value": "> 50", "unit": "µM"},
      {"measurement": "TGI", "setting": "HCT-116 colon", "value": "> 27.8", "unit": "µM"},
      {"measurement": "TGI", "setting": "TK-10 renal", "value": 8, "unit": "µM"},
      {"measurement": "TGI", "setting": "UACC-62 melanoma", "value": "> 50", "unit": "µM"},
      {"measurement": "TGI", "setting": "MCF7 breast", "value": "> 50", "unit": "µM"},
      {"measurement": "TGI", "setting": "SK-MEL-2 melanoma", "value": 6.48, "unit": "µM"},
      {"measurement": "TGI", "setting": "SF-539 CNS", "value": "> 33.6", "unit": "µM"},
      {"measurement": "TGI", "setting": "DU-145 prostate", "value": "> 39.2", "unit": "µM"},
      {"measurement": "TGI", "setting": "OVCAR-8 ovarian", "value": 23.7, "unit": "µM"},
      {"measurement": "TGI", "setting": "MDA-MB-435", "value": "> 42.7", "unit": "µM"},
      {"measurement": "TGI", "setting": "NCI-H460 lung", "value": "> 50", "unit": "µM"},
      {"measurement": "TGI", "setting": "EKVX NSCLC", "value": 22.7, "unit": "µM"},
      {"measurement": "TGI", "setting": "MDA-N", "value": "> 31.8", "unit": "µM"},
      {"measurement": "TGI", "setting": "UACC-257 melanoma", "value": "> 25.9", "unit": "µM"},
      {"measurement": "TGI", "setting": "CAKI-1 renal", "value": 6.49, "unit": "µM"},
      {"measurement": "TGI", "setting": "RXF 393 renal", "value": 2, "unit": "µM"},
      {"measurement": "TGI", "setting": "LOX IMVI melanoma", "value": 10.7, "unit": "µM"}
    ]}
  ]
}
